Test in all cases: DTP human tumour cell line panel, 48 h
For assay [1], the system named is ACHN renal.
Assay [2] has as its system MALME-3M melanoma.
In assay [3] the test system is HOP-92 NSCLC.
For assay [4], the system named is SW-620 colon.
Assay [5] has as its system LOX IMVI melanoma.
Assay [6] deals with A498 renal.
The test system of assay [7] is HT29 colon.
Assay [8] deals with HOP-62 NSCLC.
Assay [9] has as its system MDA-MB-435.

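All cell lines were grown in 96-well plates and treated with compound for 48 hours. At the GI50, growth is halved. TGI: concentration producing complete growth inhibition.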

The values below come from PubChem BioAssay (NCI).

On to `CC(=O)[CH-]C(=O)c1ccccc1.CC(=O)[CH-]C(=O)c1ccccc1.CC(=O)[CH-]C(=O)c1ccccc1.[In+3]`, for which the GI50 is 35 µM in [1]; 25.2 µM in [2]; 17.8 µM in assay [3]; 53.1 µM in assay [4]; 11 µM in [5]; 23.2 µM in assay [6]. The GI50 in assay [7] was 31.9 µM. Moreover, the TGI in assay [1] was above 100 µM; in assay [2], 84.1 µM; in [3], 49.8 µM; in [4] it was above 100 µM; in assay [5], above 100 µM; in assay [6], 56.8 µM. In assay [7], this compound gave a TGI above 100 µM.
Take `C[CH2][Sn]([CH2]C)([O]C(=O)c1ccccc1F)[O][Sn]([CH2]C)([CH2]C)[O]C(=O)c1ccccc1F`: the GI50 in assay [1] was 18.7 µM; in assay [2], 14.9 µM; in [3], 19 µM; in assay [4], 20.3 µM; in assay [5], 19.4 µM; in assay [8] it was above 100 µM. Besides, the GI50 was 22.5 µM in assay [6] and 39.8 µM in assay [7]. The TGI in assay [1] is 33 µM; in assay [2], 30.4 µM; in [3], 34.7 µM; in [4], 36.5 µM; in [5] it was 37.1 µM; in assay [8], above 100 µM. The TGI was 37.4 µM in [6] and above 72.7 µM in assay [7].
As for `CCOC(=O)/C(O)=C(/C(=O)OC)c1ccc(Cl)cc1`, the TGI in [1], in [2], in assay [4], in assay [5], in assay [8] and in assay [6] was above 100 µM each time. The compound further displayed a TGI in assay [7] above 100 µM.
On to `CCN(CC)c1oc(N(CC)CC)c(C(=O)Nc2ccccn2)c(=O)c1C(C)=O`, for which the TGI in assay [1], in assay [2], in [3], in assay [4], in [8] and in [6] was above 100 µM in each case. Further, the TGI in assay [7] is above 100 µM.
Consider `CN(C)C(=O)c1ccc([N+](=O)[O-])cc1`, for which the TGI in assay [1], in [2], in assay [3], in assay [4], in assay [5] and in [8] was above 100 µM each time. Further, the TGI in [6] and in [7] was above 100 µM in each case.
`COc1ccc(CC2(Cc3ccc(OC)cc3)CCOC2=O)cc1`: the TGI in [1], in [2], in assay [3], in assay [4], in assay [8] and in assay [6] was above 100 µM each time. In addition, the TGI in [7] was above 100 µM.
For `CC(=O)O[C@H]1CCC2[C@@H]3CCC4c5nonc5CC[C@]4(C)C3CC[C@@]21C` (some centres not stated), the GI50 was above 10 µM in assay [1]; above 100 µM in assay [2]; above 100 µM in assay [3]; above 100 µM in assay [4]; above 100 µM in assay [7]. The TGI in assay [1] was above 100 µM; in [2], above 100 µM; in [3] it was above 100 µM; in [4], above 100 µM; in assay [5] it was above 10 µM; in assay [8], above 10 µM. Moreover, the TGI in assay [6] was above 10 µM; in assay [7] it was above 100 µM.
As for `COC(=O)C(CC1=C(O)Nc2ccccc2N1)/C(=N/NC(N)=O)C(=O)Nc1ccccc1C` (configuration not stated), the TGI in assay [1] was above 100 µM; in assay [2], above 100 µM; in assay [3], above 100 µM; in assay [5], 35 µM; in [8] it was above 100 µM; in [6], above 100 µM. Besides, the TGI in assay [7] is above 100 µM.
In the case of `COc1cnc2c(c1)C(=O)c1c-2n(CCCNC2=NCCS2)c(=O)c2cc(Cl)ccc12`, the GI50 in assay [1] is 0.0487 µM; in [4] it was 0.146 µM; in assay [8] it was 0.0425 µM; in assay [6], 1.29 µM; in [7], 0.121 µM; in [9], 1.43 µM. Moreover, the TGI in assay [1] is 1.49 µM; in [4], 2.08 µM; in assay [8], 1.51 µM; in [6] it was 19.8 µM; in assay [7] it was 2.23 µM; in assay [9], 2.76 µM.
In the case of `C[C@]12CC[C@@H]3c4ccc(O)cc4CC[C@H]3[C@@H]1Cc1cnc(N)nc12`, the GI50 in assay [1] was 21.1 µM; in assay [2] it was 15.6 µM; in assay [3], 11.7 µM; in assay [4], 22.4 µM; in assay [5] it was 17.4 µM; in [8] it was 25.5 µM. For the same compound, the figures for the GI50 in [7] and in assay [9] were 52.9 µM and 16.2 µM, respectively. Further, the TGI was 51.3 µM in [1]; 29.8 µM in [2]; 31.6 µM in assay [3]; 45.9 µM in [4]; 31.3 µM in assay [5]; 59.1 µM in assay [8]. The concentration for total growth inhibition (TGI) is above 100 µM in assay [7] and 43.5 µM in assay [9].
As for `CCc1ccccc1NC(=O)/C(N=O)=C(/C)O`, the TGI in assay [1], in assay [2], in assay [4], in assay [5], in assay [8] and in [6] was above 100 µM throughout. Also, the TGI in assay [7] was above 100 µM.
In the case of `O=C(NC(=Nc1ccccc1)SCCSC(=Nc1ccccc1)NC(=O)c1cccs1)c1cccs1`, the TGI is above 100 µM in [1]; above 100 µM in assay [2]; 46.1 µM in assay [3]; above 100 µM in assay [4]; above 100 µM in assay [5]; above 100 µM in [8]. The TGI in assay [6] and in [7] was above 100 µM in each case.
